From patent publication US20060241108A1, “Substituted phenoxazines and acridones as inhibitors of AKT” (St. Jude Children's Research Hospital, priority 2005, published 2006)
Where two headings read alike, the source gives them in different places. Marks after values point to notes of the source that are not given here.

Legend:
Rh1 cells [1] = assay: Determination of apoptosis (Annexin V-FITC/propidium iodide flow cytometry), Rh1 cells; details: Rh1, 6.5 μM, four days, n = 3
Experimental: (§1) Determination of apoptosis. An ApoAlert™ Annexin V-FITC Apoptosis kit (available from Clontech, Palo Alto, Calif.) can be used to evaluate the extent of apoptosis within cell populations. Cells (Rh1: 350,000 per 75-cm^2 flask; Rh18: 800,000 per 75-cm^2 flask; or Rh30: 500,000 per 75-cm^2 flask) are preferably grown overnight in complete medium. On day 1, cells are treated with DMSO (0.1%; vehicle control) or with a test compound (e.g., a phenoxazine or acridone compound). After 4 days, the cells are trypsinized, washed with PBS, and resuspended in 200 μl of binding buffer. Cells are then incubated with 10 μl of annexin V-FITC (final concentration, 1 μg/ml) and 500 ng of propidium iodide in a final volume of 410 μl. Cells are preferably incubated at room temperature in the dark for ten minutes before flow cytometric analysis with an FACSCalibur™ Flow Cytometry System (Becton Dickinson, San Jose, Calif.).
(§2) For instance, Rh1, Rh18 and/or Rh30 cells can be grown in complete medium with 0.1% DMSO (as a negative control) or with one or more test compounds, e.g., any of the phenoxazine compounds listed in Table I, above, including but not limited to the compounds 10B, 11B, 13B, 14B or 15B. […] Cells are then harvested, and the extent of apoptosis evaluated, e.g., by an ApoAlert™ (Clontech, Palo Alto, Calif.) flow cytometric assay.

AKT = assay: Translocation of AKT from cytoplasm to nucleus in Rh1 cells, confocal microscopy; type: cell-based, human; details: 5 μM, 1 hour, IGF-1 10 ng/ml 20 minutes
Experimental: Translocation of AKT in Rh1 cells. Rh1 cells (2×10^5 per chamber) can be grown on 2-well glass chamber slides (available from Falcon, Franklin Lakes, N.J.) in serum-free medium containing fibronectin (10 μg/ml). Preferably after twenty hours, the cells are exposed to DMSO (0.1%, vehicle control) or test compound (e.g., 5 μM of phenoxazine or acridone compound) for one hour and then stimulated with IGF-I (10 ng/ml) for 20 minutes. Cells are preferably washed twice with PBS and fixed in 4% formaldehyde for 30 minutes at room temperature. The samples are then rinsed twice with PBS and permeabilized with 1% Triton X-100 for five minutes at room temperature. After rinsing twice with PBS, the cells are incubated with an anti-AKT antibody (available from Rockland, West Chester, Pa.) (1:50 dilution) for 45 minutes at 37° C. […] After rinsing twice with PBS, the slides can be mounted in media containing TOPRO-3 (also available from Molecular Probes) and analyzed by routine confocal microscopy.
Upon activation, AKT translocates to the nucleus (see, e.g., Biggs et al. Proc. Natl. Acad. Sci. USA 1999;96:7421-7426; Brownawell et al. Mol. Cell. Biol. 2001;21:3534-3546; Brunet et al. Cell 1999;96:857-868; and Rena et al. J. Biol. Chem. 1999;274:17179-17183). […] Cellular localization of AKT may then be assessed, e.g. by confocal microscopy.

Rh18 cells = details: 7.5 µM
Experimental: as §1, §2

Rh30 cells = details: 7.5 µM
Experimental: as §1, §2

Rh1 cells [2] = details: 6.5 µM
Experimental: as §1, §2

Compound	Percentage of cells ± SD, Viable (Rh1 cells [1])	nuclear localization of AKT (AKT)	Percentage of cells ± SD, Viable (Rh18 cells)	Percentage of cells ± SD, Viable (Rh30 cells)	Percentage of cells ± SD, Viable (Rh1 cells [2])
CCN(CC)CCCCN1c2ccccc2Oc2ccc(Cl)cc21 [Compound 10B, 10-[4′-(N-diethylamino)butyl]-2-chlorophenoxazine]	47.70 ± 7.90%	block in nuclear localization occurs			
10-[4′-[(β-hydroxyethyl)piperazino]butyl]-2-chlorophenoxazine [Compound 15B]		block in nuclear localization occurs	67.00 ± 7.48%	11.00 ± 2.16^d %	23.33 ± 8.66^d %
